Measurements as given in ChEMBL document CHEMBL1201862, “PubChem BioAssay data set” (2004).
Calls of active or inactive are those of the source.

Legend:
[1] = biological target: T1, Oxysterols receptor LXR-beta (Homo sapiens, UniProt P55055); type: functional, cell-based;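 further: agonist activity at LXR measured by a cell-based luminescence readout across a dose range, run as a counterscreen for daf-12 agonists; HEK293 cells with Gal4-LXR fusion and GAL4-driven luciferase reporter; potency for activation of Gal4-LXR reporter so compounds are agonists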
T1 sequence (P55055 whole entry): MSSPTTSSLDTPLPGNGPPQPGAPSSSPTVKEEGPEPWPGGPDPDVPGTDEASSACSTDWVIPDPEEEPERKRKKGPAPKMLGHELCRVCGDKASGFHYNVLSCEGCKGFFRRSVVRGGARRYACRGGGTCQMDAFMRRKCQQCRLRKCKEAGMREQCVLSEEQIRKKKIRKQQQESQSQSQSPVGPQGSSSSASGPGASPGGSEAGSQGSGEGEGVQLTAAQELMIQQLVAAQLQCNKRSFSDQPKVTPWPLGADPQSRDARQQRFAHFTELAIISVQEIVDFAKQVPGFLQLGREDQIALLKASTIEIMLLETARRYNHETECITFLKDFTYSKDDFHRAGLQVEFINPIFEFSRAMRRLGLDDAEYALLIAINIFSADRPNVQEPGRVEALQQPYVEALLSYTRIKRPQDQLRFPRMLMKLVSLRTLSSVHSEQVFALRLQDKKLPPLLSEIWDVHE

[2] = biological target: Mitogen-activated protein kinase 10 (Homo sapiens, UniProt P53779); assay: Dose response biochemical screening assay for inhibitors of c-Jun N-Terminal Kinase 3 (JNK3). [Related pubchem assays: 746 ]
Mitogen-activated protein kinase 10, sequence (P53779 whole entry): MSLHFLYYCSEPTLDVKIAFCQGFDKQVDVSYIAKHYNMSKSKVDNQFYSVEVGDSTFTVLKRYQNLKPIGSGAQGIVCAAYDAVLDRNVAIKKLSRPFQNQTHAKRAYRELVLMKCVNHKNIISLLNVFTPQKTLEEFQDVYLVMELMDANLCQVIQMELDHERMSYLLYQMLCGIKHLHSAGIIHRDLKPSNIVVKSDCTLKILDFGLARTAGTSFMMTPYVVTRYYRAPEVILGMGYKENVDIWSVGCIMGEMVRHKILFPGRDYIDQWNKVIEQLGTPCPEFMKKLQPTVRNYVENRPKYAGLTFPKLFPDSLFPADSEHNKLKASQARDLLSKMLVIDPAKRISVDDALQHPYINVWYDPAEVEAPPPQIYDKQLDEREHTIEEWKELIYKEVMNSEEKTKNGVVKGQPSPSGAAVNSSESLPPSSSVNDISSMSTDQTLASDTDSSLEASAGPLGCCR

Protein skinhead-1 = biological target: T2, Protein skinhead-1 (Caenorhabditis elegans, UniProt P34707); type: functional
T2 sequence (P34707 whole entry): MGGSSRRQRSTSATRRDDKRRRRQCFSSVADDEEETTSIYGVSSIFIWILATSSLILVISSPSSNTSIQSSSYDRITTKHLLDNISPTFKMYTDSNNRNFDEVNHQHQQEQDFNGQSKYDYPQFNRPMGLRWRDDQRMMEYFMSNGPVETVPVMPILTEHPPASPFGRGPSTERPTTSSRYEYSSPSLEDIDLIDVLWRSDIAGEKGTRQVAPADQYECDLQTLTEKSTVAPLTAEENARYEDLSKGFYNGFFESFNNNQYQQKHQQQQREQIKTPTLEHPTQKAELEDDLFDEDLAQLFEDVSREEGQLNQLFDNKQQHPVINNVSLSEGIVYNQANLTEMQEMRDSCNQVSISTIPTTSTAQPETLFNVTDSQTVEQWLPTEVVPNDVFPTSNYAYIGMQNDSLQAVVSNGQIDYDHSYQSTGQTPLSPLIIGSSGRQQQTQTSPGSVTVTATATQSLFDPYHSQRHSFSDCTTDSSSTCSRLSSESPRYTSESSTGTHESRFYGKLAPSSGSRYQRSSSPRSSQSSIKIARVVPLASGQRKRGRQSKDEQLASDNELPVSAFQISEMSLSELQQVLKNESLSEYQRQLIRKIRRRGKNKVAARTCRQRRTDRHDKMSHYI

Fatty acid synthase [3] = biological target: T3, Fatty acid synthase (Homo sapiens, UniProt P49327); assay: FAS thioesterase domain inhibitors, dose response, biochemical, kinetic fluorescence intensity (AID 624326); type: functional;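 further: rate of fluorescence rise from hydrolysis of a fluorogenic O-methyl fluorescein ester substrate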
T3 sequence (P49327 whole entry, the tested form may be a part): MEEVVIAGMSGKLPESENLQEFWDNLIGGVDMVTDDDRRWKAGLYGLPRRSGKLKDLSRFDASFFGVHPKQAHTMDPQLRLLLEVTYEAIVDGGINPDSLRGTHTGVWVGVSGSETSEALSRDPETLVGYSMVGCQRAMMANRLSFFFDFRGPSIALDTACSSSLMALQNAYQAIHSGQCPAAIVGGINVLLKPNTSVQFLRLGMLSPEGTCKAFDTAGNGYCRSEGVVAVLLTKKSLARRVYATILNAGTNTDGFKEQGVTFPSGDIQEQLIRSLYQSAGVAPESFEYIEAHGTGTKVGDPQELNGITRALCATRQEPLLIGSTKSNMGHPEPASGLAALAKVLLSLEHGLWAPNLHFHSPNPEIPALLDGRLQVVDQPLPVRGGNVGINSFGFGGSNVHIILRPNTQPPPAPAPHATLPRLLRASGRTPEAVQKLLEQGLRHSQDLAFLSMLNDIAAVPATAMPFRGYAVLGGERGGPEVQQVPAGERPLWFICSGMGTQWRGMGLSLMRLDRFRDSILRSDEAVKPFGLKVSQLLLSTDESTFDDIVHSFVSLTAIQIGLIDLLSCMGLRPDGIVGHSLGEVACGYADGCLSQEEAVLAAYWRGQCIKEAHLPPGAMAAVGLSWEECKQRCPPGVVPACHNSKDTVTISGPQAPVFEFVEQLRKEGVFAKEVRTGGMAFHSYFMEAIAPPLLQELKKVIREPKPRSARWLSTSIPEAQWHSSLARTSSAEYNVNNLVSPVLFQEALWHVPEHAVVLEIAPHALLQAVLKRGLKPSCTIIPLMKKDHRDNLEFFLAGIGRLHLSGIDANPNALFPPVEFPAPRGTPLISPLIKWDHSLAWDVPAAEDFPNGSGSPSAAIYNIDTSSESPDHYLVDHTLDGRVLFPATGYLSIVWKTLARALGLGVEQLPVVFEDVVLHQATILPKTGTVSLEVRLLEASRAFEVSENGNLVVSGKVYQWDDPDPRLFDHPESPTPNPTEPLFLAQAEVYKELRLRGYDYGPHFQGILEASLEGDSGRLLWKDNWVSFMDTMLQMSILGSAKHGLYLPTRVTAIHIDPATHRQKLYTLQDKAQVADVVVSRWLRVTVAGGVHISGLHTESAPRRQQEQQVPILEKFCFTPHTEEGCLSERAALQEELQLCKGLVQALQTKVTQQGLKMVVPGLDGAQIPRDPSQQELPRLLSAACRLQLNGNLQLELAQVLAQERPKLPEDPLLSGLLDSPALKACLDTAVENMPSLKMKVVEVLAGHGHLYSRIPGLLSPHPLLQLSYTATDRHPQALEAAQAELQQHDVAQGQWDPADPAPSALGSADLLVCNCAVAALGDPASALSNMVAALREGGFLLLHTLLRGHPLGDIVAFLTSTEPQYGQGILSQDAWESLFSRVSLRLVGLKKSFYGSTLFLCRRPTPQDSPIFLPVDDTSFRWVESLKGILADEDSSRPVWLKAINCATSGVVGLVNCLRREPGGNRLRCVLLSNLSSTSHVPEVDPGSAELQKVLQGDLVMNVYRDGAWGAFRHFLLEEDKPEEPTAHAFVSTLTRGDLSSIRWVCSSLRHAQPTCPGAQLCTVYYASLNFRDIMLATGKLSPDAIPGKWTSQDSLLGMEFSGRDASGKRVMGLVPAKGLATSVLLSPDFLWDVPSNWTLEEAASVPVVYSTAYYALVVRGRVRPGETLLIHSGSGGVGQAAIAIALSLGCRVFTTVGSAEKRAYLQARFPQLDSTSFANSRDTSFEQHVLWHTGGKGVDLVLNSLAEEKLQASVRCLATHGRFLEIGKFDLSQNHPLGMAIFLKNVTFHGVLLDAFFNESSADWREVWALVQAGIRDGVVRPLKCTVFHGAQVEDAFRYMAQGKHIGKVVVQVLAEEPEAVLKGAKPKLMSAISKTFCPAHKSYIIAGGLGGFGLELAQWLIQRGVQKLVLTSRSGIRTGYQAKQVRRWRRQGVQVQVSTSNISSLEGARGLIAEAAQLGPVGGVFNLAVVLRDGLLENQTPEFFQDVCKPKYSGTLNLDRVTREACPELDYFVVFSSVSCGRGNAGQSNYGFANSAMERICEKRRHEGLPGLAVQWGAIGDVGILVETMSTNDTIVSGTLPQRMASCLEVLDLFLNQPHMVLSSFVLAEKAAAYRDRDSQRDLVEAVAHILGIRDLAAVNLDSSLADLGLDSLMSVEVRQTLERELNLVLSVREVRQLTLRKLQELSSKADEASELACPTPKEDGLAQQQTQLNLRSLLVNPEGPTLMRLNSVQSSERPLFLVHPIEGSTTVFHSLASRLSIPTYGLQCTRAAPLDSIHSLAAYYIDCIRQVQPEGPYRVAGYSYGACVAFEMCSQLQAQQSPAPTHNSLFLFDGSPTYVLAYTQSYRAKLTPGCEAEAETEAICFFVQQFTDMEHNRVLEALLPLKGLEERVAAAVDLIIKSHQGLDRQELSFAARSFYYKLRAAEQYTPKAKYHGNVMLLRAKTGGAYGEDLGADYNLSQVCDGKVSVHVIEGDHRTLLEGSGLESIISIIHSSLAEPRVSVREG

Fatty acid synthase [4] = biological target: T3, Fatty acid synthase; assay: FAS thioesterase domain inhibitors, dose response, biochemical, endpoint fluorescence intensity, uHTS hits (AID 624327); type: functional;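 further: fluorescence from hydrolysis of an O-methyl fluorescein acyl ester substrate by the enzyme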
[5] = P. falciparum Dd2 growth inhibitors, dose response, SYBR Green, dry powder samples, set 9 (AID 1159568); type: functional, cell-based
[6] = P. falciparum ATP4 D1247Y mutant growth inhibitors, dose response, NITD609-resistant line, SYBR Green, dry powder (AID 1159571); type: functional, cell-based;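 further: parasites synchronized at ring stage by sorbitol before testing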
[7] = P. falciparum Dd2 growth inhibitors, dose response, SYBR Green, dry powder samples (AID 1159566); type: functional, cell-based;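 further: potency for growth inhibition with lower SYBR green DNA signal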
[8] = P. falciparum Dd2 growth inhibitors, dose response, SYBR Green, cherry-picked samples (AID 1159567); type: functional, cell-based
[9] = P. falciparum 3D7-ScDHODH growth inhibitors, dose response, SYBR Green, dry powder samples (AID 1159570); type: functional, cell-based;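 further: parasite growth measured after 72 hours of compound exposure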
[10] = growth suppression of beta-catenin-knockout colon cells, dose response, cell-based, HCT116, human colon tumor (AID 1045); type: functional;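 further: HCT116 colon tumor cells with beta catenin knocked out; cells exposed to compound for 60 hours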
[11] = C. albicans growth with fluconazole, confirmation, fluorescence, retest (AID 2467); type: functional, cell-based
[12] = NIH-3T3 fibroblast cytotoxicity, dose response, cytotoxicity control, cell-based, fluorescence, Alamar Blue, secondary assay (AID 2327); type: functional;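 further: NIH-3T3 mouse fibroblasts cultured with fluconazole at 8 µg/mL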
[13] = growth suppression of PTEN-null colon cells, dose response, cell-based, HCT116 PTEN knockout (AID 1047); type: functional;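 further: HCT116 colon tumor cells with PTEN knocked out; cells exposed to compound for 60 hours before readout; potency for loss of cell viability measured by luminescence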
[14] = HepG2 cell cytotoxicity, dose response, cytotoxicity control, ATP luminescence, cherry-pick, activator set 2 (AID 1053143); type: functional, cell-based
[15] = Luminescence Cell-Based Dose Confirmation HTS to Identify Inhibitors of Platelet Dense Granule Release. [Related pubchem assays: 1663 (Primary HTS), 1678 (Summary of Project)]; type: functional
Large T antigen = Large T antigen (Simian virus 40, UniProt P03070); type: functional, Betapolyomavirus macacae;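 further: Confirmatory-stage PubChem screen for compounds that inhibit SV40 T antigen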
Large T antigen, sequence (P03070 whole entry): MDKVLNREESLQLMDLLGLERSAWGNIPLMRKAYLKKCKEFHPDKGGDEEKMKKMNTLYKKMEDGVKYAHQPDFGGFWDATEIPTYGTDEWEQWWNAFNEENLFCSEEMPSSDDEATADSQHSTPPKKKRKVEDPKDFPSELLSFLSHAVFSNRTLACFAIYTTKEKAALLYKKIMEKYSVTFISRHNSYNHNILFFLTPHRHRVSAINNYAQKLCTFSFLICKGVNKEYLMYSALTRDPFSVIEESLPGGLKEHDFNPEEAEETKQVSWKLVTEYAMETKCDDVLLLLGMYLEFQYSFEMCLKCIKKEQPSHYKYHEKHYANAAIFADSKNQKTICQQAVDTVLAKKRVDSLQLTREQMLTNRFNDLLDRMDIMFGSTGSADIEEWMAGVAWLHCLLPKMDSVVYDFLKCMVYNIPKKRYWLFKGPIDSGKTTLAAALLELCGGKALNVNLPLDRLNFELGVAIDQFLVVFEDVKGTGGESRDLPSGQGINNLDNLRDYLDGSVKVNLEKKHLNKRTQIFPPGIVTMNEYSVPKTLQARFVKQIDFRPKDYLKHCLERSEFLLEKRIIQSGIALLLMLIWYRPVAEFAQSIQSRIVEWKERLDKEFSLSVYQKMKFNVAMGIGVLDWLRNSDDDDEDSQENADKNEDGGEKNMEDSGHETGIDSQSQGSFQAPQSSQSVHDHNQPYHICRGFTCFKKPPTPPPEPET

[16] = HeLa cell cytotoxicity, dose response, cytotoxicity control for MgcRacGAP inhibitor project (AID 624300); type: functional
[17] = biological target: T4, Rac GTPase-activating protein 1 (Homo sapiens, UniProt Q9H0H5); assay: MgcRacGAP GTPase-activating activity inhibitors, confirmation, biochemical, ADP Hunter fluorescence, primary and confirmatory (AID 624330); type: functional
T4 sequence (Q9H0H5 whole entry): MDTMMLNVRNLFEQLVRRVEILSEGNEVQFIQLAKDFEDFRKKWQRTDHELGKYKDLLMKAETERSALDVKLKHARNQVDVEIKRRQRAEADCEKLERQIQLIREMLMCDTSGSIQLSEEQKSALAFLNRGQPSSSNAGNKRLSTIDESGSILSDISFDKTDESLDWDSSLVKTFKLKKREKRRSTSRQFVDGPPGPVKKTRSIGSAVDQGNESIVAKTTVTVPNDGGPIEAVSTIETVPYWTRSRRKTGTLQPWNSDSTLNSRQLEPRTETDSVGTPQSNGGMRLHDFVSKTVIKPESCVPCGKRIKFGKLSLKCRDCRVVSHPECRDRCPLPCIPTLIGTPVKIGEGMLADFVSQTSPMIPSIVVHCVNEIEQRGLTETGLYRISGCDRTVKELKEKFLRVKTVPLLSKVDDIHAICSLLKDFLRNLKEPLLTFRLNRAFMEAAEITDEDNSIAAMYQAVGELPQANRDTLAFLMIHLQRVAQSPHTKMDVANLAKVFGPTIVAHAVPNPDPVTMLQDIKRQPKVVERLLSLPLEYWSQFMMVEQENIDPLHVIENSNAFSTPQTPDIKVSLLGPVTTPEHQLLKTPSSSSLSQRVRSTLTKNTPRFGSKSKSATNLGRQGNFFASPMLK

[18] = biological target: Luciferin 4-monooxygenase (Photinus pyralis, UniProt P08659); assay: firefly luciferase enzyme inhibitors, dose response, biochemical, luminescence (AID 1891)
Luciferin 4-monooxygenase, sequence (P08659 whole entry): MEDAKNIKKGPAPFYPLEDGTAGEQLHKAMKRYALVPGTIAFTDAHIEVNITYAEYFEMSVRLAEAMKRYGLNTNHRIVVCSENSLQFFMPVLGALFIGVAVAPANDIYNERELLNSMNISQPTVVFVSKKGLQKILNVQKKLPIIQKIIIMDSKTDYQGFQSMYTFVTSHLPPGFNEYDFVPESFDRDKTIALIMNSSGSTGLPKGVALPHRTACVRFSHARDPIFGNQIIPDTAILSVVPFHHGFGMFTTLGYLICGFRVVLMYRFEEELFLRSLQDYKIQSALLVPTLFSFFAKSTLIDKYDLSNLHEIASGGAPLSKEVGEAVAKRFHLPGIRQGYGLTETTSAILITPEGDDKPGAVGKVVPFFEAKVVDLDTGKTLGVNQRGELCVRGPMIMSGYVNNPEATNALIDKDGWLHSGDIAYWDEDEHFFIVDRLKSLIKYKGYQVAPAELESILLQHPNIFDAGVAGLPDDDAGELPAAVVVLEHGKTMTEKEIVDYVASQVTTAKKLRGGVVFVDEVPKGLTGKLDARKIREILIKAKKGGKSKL

Nonstructural protein 1 = Nonstructural protein 1 (Influenza A virus, UniProt Q194T2); type: functional, Influenza A virus (A/California/07/2009(H1N1))
Nonstructural protein 1, sequence (Q194T2 whole entry): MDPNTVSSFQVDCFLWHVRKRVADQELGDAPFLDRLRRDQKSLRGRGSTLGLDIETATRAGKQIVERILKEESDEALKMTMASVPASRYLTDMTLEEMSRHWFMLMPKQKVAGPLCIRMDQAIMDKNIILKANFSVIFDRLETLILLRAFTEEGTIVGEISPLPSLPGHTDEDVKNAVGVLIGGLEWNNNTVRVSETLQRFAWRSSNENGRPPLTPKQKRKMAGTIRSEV

[19] = biological target: T5, Polyadenylate-binding protein 1 (Homo sapiens, UniProt P11940); assay: PABP1 MLLE–PAM2 interaction inhibitors, dose response, miRNA deadenylation inhibitor project, biochemical, fluorescence polarization, Cy5-PAM2 peptide, secondary (AID 602260); type: functional; details: read-out: IC50_Mean
T5 sequence (P11940 whole entry): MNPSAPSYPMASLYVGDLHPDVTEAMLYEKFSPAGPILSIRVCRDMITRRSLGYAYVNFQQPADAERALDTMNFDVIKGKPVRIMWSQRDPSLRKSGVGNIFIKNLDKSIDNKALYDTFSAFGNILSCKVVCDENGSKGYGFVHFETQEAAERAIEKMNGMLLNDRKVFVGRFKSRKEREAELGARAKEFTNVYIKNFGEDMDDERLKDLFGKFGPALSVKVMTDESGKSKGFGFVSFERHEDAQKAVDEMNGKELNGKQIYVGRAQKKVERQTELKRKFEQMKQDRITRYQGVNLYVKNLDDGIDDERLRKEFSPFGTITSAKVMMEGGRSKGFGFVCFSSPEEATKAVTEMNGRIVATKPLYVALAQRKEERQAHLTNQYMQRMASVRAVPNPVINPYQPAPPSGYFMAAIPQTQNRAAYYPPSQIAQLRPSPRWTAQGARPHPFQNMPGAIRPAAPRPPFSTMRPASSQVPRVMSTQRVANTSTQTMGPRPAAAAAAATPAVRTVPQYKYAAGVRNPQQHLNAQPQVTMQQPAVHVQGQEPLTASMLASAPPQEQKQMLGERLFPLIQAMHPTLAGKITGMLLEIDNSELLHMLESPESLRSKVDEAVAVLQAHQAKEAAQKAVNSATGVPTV

[20] = biological target: T5, Polyadenylate-binding protein 1; assay: PABP1 MLLE–PAM2 binding inhibitor potency, dose response, biochemical, fluorescence polarization, FITC-PAM2 peptide (AID 602259); type: functional; details: read-out: IC50_Mean
[21] = THP-1 cell cytotoxicity, dose response, cytotoxicity control for Vif-APOBEC3G degradation inhibitor project, THP-1 cells (AID 1117359); type: functional; details: Human immunodeficiency virus 1, THP-1
[22] = biological target: T6, Corticotropin-releasing factor receptor 2/Corticotropin-releasing factor-binding protein (Homo sapiens, UniProt P24387+Q13324); assay: activators of CRF receptor 2 with binding protein – uHTS hits, confirmation (AID 602473); type: functional; details: read-out: EC50_Mean
T6 sequence (Q13324 whole entry): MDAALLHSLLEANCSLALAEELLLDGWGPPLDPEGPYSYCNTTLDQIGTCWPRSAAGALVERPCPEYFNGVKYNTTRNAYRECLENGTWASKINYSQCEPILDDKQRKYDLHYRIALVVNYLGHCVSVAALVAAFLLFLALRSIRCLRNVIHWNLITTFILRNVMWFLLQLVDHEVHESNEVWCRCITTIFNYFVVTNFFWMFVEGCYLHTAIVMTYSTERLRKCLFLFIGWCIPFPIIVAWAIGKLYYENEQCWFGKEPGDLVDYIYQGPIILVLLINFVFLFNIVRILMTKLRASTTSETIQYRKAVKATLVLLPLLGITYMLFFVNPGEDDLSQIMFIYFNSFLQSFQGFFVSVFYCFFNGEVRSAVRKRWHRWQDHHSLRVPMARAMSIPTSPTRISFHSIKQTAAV
T6 sequence (P24387 whole entry): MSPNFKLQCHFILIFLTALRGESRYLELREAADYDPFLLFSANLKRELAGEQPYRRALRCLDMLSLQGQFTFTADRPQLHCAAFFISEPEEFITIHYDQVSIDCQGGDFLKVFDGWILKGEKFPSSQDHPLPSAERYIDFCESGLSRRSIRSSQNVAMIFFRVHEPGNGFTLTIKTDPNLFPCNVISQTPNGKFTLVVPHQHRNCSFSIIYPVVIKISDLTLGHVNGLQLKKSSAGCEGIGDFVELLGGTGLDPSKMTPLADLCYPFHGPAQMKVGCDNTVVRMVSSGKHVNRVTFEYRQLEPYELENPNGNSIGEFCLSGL

[23] = biological target: T6, Corticotropin-releasing factor receptor 2/Corticotropin-releasing factor-binding protein; assay: Dose Response confirmation of uHTS hits for small molecule antagonists of the CRF-binding protein and CRF-R2 receptor complex.; type: functional; details: read-out: IC50_Mean

SMILES: COc1ccc(Oc2cnn(-c3ccccc3)c(=O)c2Br)cc1
- EC50 [1]: > 67.5 µM (inactive)

SMILES: CCc1ccc2c(COC(=O)c3n[nH]c4ccccc34)cc(=O)oc2c1
- IC50 [2]: > 93.1 µM (not active)

SMILES: O=C(CSc1nc(-c2ccco2)cc(C(F)(F)F)n1)NC1CCCCCCC1
- IC50 (Protein skinhead-1): > 100 µM (inactive)

SMILES: Cc1ccccc1N(CC(=O)NCc1ccc2c(c1)OCO2)C(=O)C1CSC(=O)C1 (stereo not drawn)
- IC50 (Fatty acid synthase [3]): 4.48 µM (active)
- IC50 (Fatty acid synthase [4]): 5.85 µM (active)

SMILES: COc1ccc(C(C)=O)cc1COC(=O)c1cc(C)oc1C
- IC50 [2]: 61.8 µM (not active)

SMILES: O=C(Nc1cccc(F)c1)N1CCCCN2[C@H](CO)[C@@H](c3ccc(C#Cc4cccnc4)cc3)[C@@H]2C1
- AC50 [5]: 2.58 µM (active)

SMILES: Cc1ccc(NC(=S)NC(=O)C2CCCC2)c(Br)c1
- EC50 [1]: > 67.5 µM (inactive)

SMILES: C[C@@H]1CN([C@@H](C)CO)C(=O)c2cccc(NC(=O)C3CC3)c2O[C@@H]1CN(C)C(=O)Nc1ccc(C(F)(F)F)cc1
- AC50 [6]: 0.322 µM (active)
- AC50 [7]: 0.275 µM (active)
- AC50 [5]: 0.181 µM (active)
- AC50 [8]: 0.642 µM (active)
- AC50 [9]: 0.312 µM (active)

SMILES: O=C(NC1CCC1)c1ccc(C#CC2CC2)cn1
- EC50 [1]: > 67.5 µM (inactive)

SMILES: N#Cc1cccc(-c2ccc3c(c2)[C@H]2[C@H](CCN2S(=O)(=O)c2ccc(F)cc2)[C@@H](CO)N3)c1
- AC50 [5]: 8.37 µM (active)

SMILES: S=C(Nc1ccccc1)Nc1nc2ccccc2n1CCOc1ccc(Cl)cc1
- EC50 [10]: 16 µM (active)
- EC50 [11]: 2.58 µM (active)
- IC50 (Protein skinhead-1): > 100 µM (inactive)
- EC50 [12]: 11.1 µM (active)
- EC50 [13]: 17.1 µM (active)

SMILES: c1csc(Cn2nnnc2CN2CCN(c3nc4ccccc4s3)CC2)c1
- IC50 (Protein skinhead-1): > 100 µM (inactive)

SMILES: Oc1ccc(/C=N/Nc2nccnc2Cl)cc1
- AC50 [14]: 13.7 µM (active)
- EC50 [15]: 0.138 µM (active)
- IC50 (Large T antigen): 6.32 µM (active)
- CC50 [16]: 46.1 µM (active)
- IC50 [17]: 16.3 µM (active)
- EC50 [18]: 1.12 µM (active)

SMILES: CNc1cccc2c1C(=O)c1ccccc1C2=O
- IC50 (Nonstructural protein 1): 8.18 µM (active)
- IC50 (Protein skinhead-1): > 100 µM (inactive)
- IC50 [19]: > 66 µM (inactive)
- IC50 [20]: 49.1 µM (inactive)

SMILES: Cc1ccc(C(=O)N/C(=C\c2cn(S(=O)(=O)N(C)C)c3ccccc23)C(=O)NCCN2CCOCC2)cc1
- IC50 (Fatty acid synthase [3]): 16.5 µM (active)
- IC50 (Fatty acid synthase [4]): 12.7 µM (active)

SMILES: CNC(=O)c1[nH]cnc1C(=O)Nc1cccc(OC)c1
- IC50 [2]: 50.1 µM (not active)

SMILES: Cc1ccc(Nc2ncnc(-n3cccc3)n2)cc1Cl
- AC50 [14]: > 52 µM (inactive)

SMILES: CN=c1ccccc(-c2ccc3cc4c(cc3n2)OCO4)c1O
- CC50 [21]: > 40 µM (active)

SMILES: CN(C)CCNC(=O)C(=O)c1c(-c2ccccc2)cc2ccccn12
- CC50 [21]: > 40 µM (active)
- EC50 [22]: > 53 µM (inactive)
- IC50 [23]: > 47.1 µM (inactive)

SMILES: Cn1c(NCc2c[nH]c3ccccc23)nc2ccccc21
- EC50 [1]: > 67.5 µM (inactive)

SMILES: Cc1ccc([N+](=O)[O-])cc1NC(=O)c1ccc(C(C)(C)C)cc1
- IC50 (Fatty acid synthase [3]): 4.59 µM (active)
- IC50 (Fatty acid synthase [4]): 5.57 µM (active)

SMILES: COc1ccc2c3c([nH]c2c1)[C@H](CO)N(S(C)(=O)=O)CC31CCN(C(=O)Nc2ccccc2)CC1
- AC50 [5]: 0.145 µM (active)
